*1 amine or outer side, *2 acyl side, *3 side chain or, on linkers, in order; H or OH if unused. Where a SMILES comes first, the peptide text is derived from it. Bridges are numbered along the chain shown (N, C = ends). [ ]: non-standard residue; d: D form. TATA = O=C(CC[*:1])N1CN(C(=O)CC[*:2])CN(C(=O)CC[*:3])C1; 1Nal = N[C@@H](Cc1cccc2ccccc12)C(=O)O
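Also: Bio-layer interferometry in 50 mM HEPES pH 7.5 with 150 mM NaCl and 0.1% Tween, double-referenced with blank wells and unrelated-protein sensors, equilibrium response fitted versus concentration.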

The target of the experiment is TREM2 extracellular domain (ECD) (residues 19-131, C-terminally biotinylated, deglycosylated or glycosylated) (Homo sapiens, UniProt Q9NZC2). The experiment in a line: biochemical. As to conditions: Human BLI (Kd; nM) (deglycosylated), Table 4A; deglycosylated human TREM2 ECD; steady-state KD, 25° C.
Chain of TREM2 extracellular domain (ECD) (residues 19-131, C-terminally biotinylated, deglycosylated or glycosylated) (Q9NZC2 19-131): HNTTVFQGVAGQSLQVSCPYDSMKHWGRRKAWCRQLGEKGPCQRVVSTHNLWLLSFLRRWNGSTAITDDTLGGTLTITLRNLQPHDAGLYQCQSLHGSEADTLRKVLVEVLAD
Protocol: Bio-layer interferometry was performed on an Octet RED384® system (Sartorius) at 25° C. in a buffer containing 50 mM HEPES (pH 7.5), 150 mM NaCl and 0.1% Tween. TREM2 extracellular domain (ECD) (residues 19-131, C-terminally biotinylated, deglycosylated or glycosylated) was loaded onto Superstreptavidin biosensors (SSA, 18-5070, Sartorius) at 0.0125 mg/ml for 300 s. Bicycle peptides (10 mM in DMSO) were dispensed into 384-Well Tilted-Bottom Plates (18-5076, Sartorius) using an Echo liquid handler giving a final DMSO concentration of 0.125% in all wells including control wells. Association of defined concentrations of bicyclic peptide (0-12.5 μM, 1:2 dilutions for 7 points) was recorded over 120 s followed by dissociation in buffer over 120 s. Reference wells containing no bicycle peptides and reference sensors loaded with an unrelated protein (His-tagged MLLT3a) were subjected to the same assay protocol and double reference subtraction was used for processing to account for non-specific binding. Traces were analysed using Octet Software (Version 11.0). Association and dissociation curves were globally fit and the response at equilibrium (Req) plotted against concentration to obtain steady-state KD values.
`C[C@H](N)C(=O)N[C@H]1CSCCC(=O)N2CN3CN(C2)C(=O)CCSC[C@H](NC(=O)[C@H](Cc2ccc(O)cc2)NC(=O)[C@H](CCC(=O)O)NC(=O)[C@H](CO)NC1=O)C(=O)N[C@@H](Cc1ccccc1)C(=O)N[C@@H](Cc1c[nH]c2ccccc12)C(=O)N1CCC[C@H]1C(=O)N[C@@H](Cc1ccccc1)C(=O)N[C@@H](Cc1ccc(O)cc1)C(=O)N[C@@H](CO)C(=O)N[C@H](C(=O)N[C@@H](C)C(N)=O)CSCCC3=O` [BCY17669, A-(SEQ ID NO: 2)-A] (H-ACSEYCFWPFYSCA-NH2; linker 2-6-13 via TATA) displayed a Kd of 1200 nM.
Consider `CC(=O)N[C@H]1CSCCC(=O)N2CN3CN(C2)C(=O)CCSC[C@H](NC(=O)[C@H](Cc2ccc(O)cc2)NC(=O)[C@H](CCC(=O)O)NC(=O)[C@H](CO)NC1=O)C(=O)N[C@@H](Cc1ccccc1)C(=O)N[C@@H](Cc1c[nH]c2ccccc12)C(=O)N1CCC[C@H]1C(=O)N[C@@H](Cc1ccccc1)C(=O)N[C@@H](Cc1ccc(O)cc1)C(=O)N[C@@H](Cc1c[nH]cn1)C(=O)N[C@H](C(N)=O)CSCCC3=O` [BCY18217, Ac-(SEQ ID NO: 1)], for which the Kd is 900 nM.
As to `CC(=O)N[C@@H](C)C(=O)N[C@H]1CSCCC(=O)N2CN3CN(C2)C(=O)CCSC[C@H](NC(=O)[C@H](Cc2ccc(O)cc2)NC(=O)[C@H](CCC(=O)O)NC(=O)[C@H](CO)NC1=O)C(=O)N[C@@H](Cc1ccccc1)C(=O)N[C@@H](Cc1c[nH]c2ccccc12)C(=O)N1CCC[C@H]1C(=O)N[C@@H](Cc1ccccc1)C(=O)N[C@@H](Cc1ccc(O)cc1)C(=O)N[C@@H](Cc1c[nH]cn1)C(=O)N[C@H](C(=O)N[C@@H](C)C(N)=O)CSCCC3=O` [BCY18218, Ac-A-(SEQ ID NO: 1)-A] (Ac-ACSEYCFWPFYHCA-NH2; linker 2-6-13 via TATA), binding was put at a Kd of 2000 nM.
Turning to `NC(=O)[C@@H]1CSCCC(=O)N2CN3CN(C2)C(=O)CCSC[C@H](N)C(=O)N[C@@H](CO)C(=O)N[C@@H](CCC(=O)O)C(=O)N[C@@H](Cc2ccc(O)cc2)C(=O)N[C@@H](CSCCC3=O)C(=O)N[C@@H](Cc2ccccc2)C(=O)N[C@@H](Cc2c[nH]c3ccccc23)C(=O)N2CCC[C@H]2C(=O)N[C@@H](Cc2ccccc2)C(=O)N[C@@H](Cc2ccc(O)cc2)C(=O)N[C@@H](Cc2c[nH]cn2)C(=O)N1` [BCY18219, SEQ ID NO: 1], the Kd came out at 700 nM. This Kd is about 2.9-fold lower than that of the compound before.
On to `C[C@H](N)C(=O)N[C@H]1CSCCC(=O)N2CN3CN(C2)C(=O)CCSC[C@H](NC(=O)[C@H](Cc2ccc(O)cc2)NC(=O)[C@H](CCC(=O)O)NC(=O)[C@H](C)NC1=O)C(=O)N[C@@H](Cc1ccccc1)C(=O)N[C@@H](Cc1c[nH]c2ccccc12)C(=O)N1CCC[C@H]1C(=O)N[C@@H](Cc1ccccc1)C(=O)N[C@@H](Cc1ccc(O)cc1)C(=O)N[C@@H](Cc1c[nH]cn1)C(=O)N[C@H](C(=O)N[C@@H](C)C(N)=O)CSCCC3=O` [BCY18220, A-(SEQ ID NO: 24)-A] (H-ACAEYCFWPFYHCA-NH2; linker 2-6-13 via TATA), for which binding was characterised by a dissociation constant (Kd) of 2000 nM.
On to `C[C@H](N)C(=O)N[C@H]1CSCCC(=O)N2CN3CN(C2)C(=O)CCSC[C@H](NC(=O)[C@H](Cc2ccc(O)cc2)NC(=O)[C@H](C)NC(=O)[C@H](CO)NC1=O)C(=O)N[C@@H](Cc1ccccc1)C(=O)N[C@@H](Cc1c[nH]c2ccccc12)C(=O)N1CCC[C@H]1C(=O)N[C@@H](Cc1ccccc1)C(=O)N[C@@H](Cc1ccc(O)cc1)C(=O)N[C@@H](Cc1c[nH]cn1)C(=O)N[C@H](C(=O)N[C@@H](C)C(N)=O)CSCCC3=O` [BCY18221, A-(SEQ ID NO: 25)-A] (H-ACSAYCFWPFYHCA-NH2; linker 2-6-13 via TATA), for which binding was characterised by a dissociation constant (Kd) of 1800 nM.
For `CC(=O)N[C@H]1CSCCC(=O)N2CN3CN(C2)C(=O)CCSC[C@H](NC(=O)[C@H](Cc2ccc(O)cc2)NC(=O)[C@H](CCC(=O)O)NC(=O)[C@H](CO)NC1=O)C(=O)N[C@@H](Cc1ccccc1)C(=O)N[C@@H](Cc1cccc2ccccc12)C(=O)N1CCC[C@H]1C(=O)N[C@@H](Cc1ccccc1)C(=O)N[C@@H](Cc1ccc(O)cc1)C(=O)N[C@@H](Cc1c[nH]cn1)C(=O)N[C@H](C(N)=O)CSCCC3=O` [BCY19669, Ac-(SEQ ID NO: 37)] (Ac-CSEYCF[1Nal]PFYHC-NH2; linker 1-5-12 via TATA), the affinity, expressed as Kd, was 2000 nM.
For the compound `CC(=O)N[C@H]1CSCCC(=O)N2CN3CN(C2)C(=O)CCSC[C@H](NC(=O)[C@H](Cc2ccc(O)cc2)NC(=O)[C@H](CCC(=O)O)NC(=O)[C@H](CO)NC1=O)C(=O)N[C@@H](Cc1ccccc1)C(=O)N[C@@H](Cc1c[nH]c2cc(Cl)ccc12)C(=O)N1CCC[C@H]1C(=O)N[C@@H](Cc1ccccc1)C(=O)N[C@@H](Cc1ccc(O)cc1)C(=O)N[C@@H](Cc1c[nH]cn1)C(=O)N[C@H](C(N)=O)CSCCC3=O` [BCY19671, Ac-(SEQ ID NO: 42)], the Kd turned out to be 1000 nM.
Next, `C[C@H](N)C(=O)N[C@H]1CSCCC(=O)N2CN3CN(C2)C(=O)CCSC[C@H](NC(=O)[C@H](Cc2ccc(O)cc2)NC(=O)[C@H](Cc2ccc(O)cc2)NC(=O)[C@H](CO)NC1=O)C(=O)N[C@@H](Cc1ccccc1)C(=O)N[C@@H](Cc1c[nH]c2ccccc12)C(=O)N1CCC[C@H]1C(=O)N[C@@H](Cc1ccccc1)C(=O)N[C@@H](CCC(N)=O)C(=O)N[C@@H](CO)C(=O)N[C@H](C(=O)N[C@@H](C)C(N)=O)CSCCC3=O` [BCY19766, A-(SEQ ID NO: 8)-A] (H-ACSYYCFWPFQSCA-NH2; linker 2-6-13 via TATA; C-terminus assumed): 1000 nM; `C[C@H](N)C(=O)N[C@H]1CSCCC(=O)N2CN3CN(C2)C(=O)CCSC[C@H](NC(=O)[C@H](Cc2ccc(O)cc2)NC(=O)[C@H](CO)NC(=O)[C@H]([C@@H](C)O)NC1=O)C(=O)N[C@@H](Cc1ccccc1)C(=O)N[C@@H](Cc1c[nH]c2ccccc12)C(=O)N1CCC[C@H]1C(=O)N[C@@H](Cc1ccccc1)C(=O)N[C@@H](Cc1ccc(O)cc1)C(=O)N[C@@H](CCC(N)=O)C(=O)N[C@H](C(=O)N[C@@H](C)C(N)=O)CSCCC3=O` [BCY19768, A-(SEQ ID NO: 10)-A] (H-ACTSYCFWPFYQCA-NH2; linker 2-6-13 via TATA; N-terminus and C-terminus assumed): 900 nM.
`C[C@H](N)C(=O)N[C@H]1CSCCC(=O)N2CN3CN(C2)C(=O)CCSC[C@H](NC(=O)[C@H](Cc2ccc(O)cc2)NC(=O)[C@H](CC(N)=O)NC(=O)[C@H]([C@@H](C)O)NC1=O)C(=O)N[C@@H](Cc1ccccc1)C(=O)N[C@@H](Cc1c[nH]c2ccccc12)C(=O)N1CCC[C@H]1C(=O)N[C@@H](Cc1ccccc1)C(=O)N[C@@H](Cc1c[nH]c2ccccc12)C(=O)N[C@@H](CO)C(=O)N[C@H](C(=O)N[C@@H](C)C(N)=O)CSCCC3=O` [BCY19769, A-(SEQ ID NO: 11)-A] (H-ACTNYCFWPFWSCA-NH2; linker 2-6-13 via TATA) had a Kd of 920 nM.
Regarding `C[C@H](N)C(=O)N[C@H]1CSCCC(=O)N2CN3CN(C2)C(=O)CCSC[C@H](NC(=O)[C@H](Cc2ccc(O)cc2)NC(=O)[C@H](CC(N)=O)NC(=O)[C@H](CO)NC1=O)C(=O)N[C@@H](Cc1ccccc1)C(=O)N[C@@H](Cc1c[nH]c2ccccc12)C(=O)N1CCC[C@H]1C(=O)N[C@@H](Cc1ccccc1)C(=O)N[C@@H](Cc1c[nH]c2ccccc12)C(=O)N[C@@H](CCC(N)=O)C(=O)N[C@H](C(=O)N[C@@H](C)C(N)=O)CSCCC3=O` [BCY19770, A-(SEQ ID NO: 12)-A] (H-ACSNYCFWPFWQCA-NH2; linker 2-6-13 via TATA; N-terminus and C-terminus assumed), the Kd came to 1800 nM.

Broadly, the Kd is a measure of binding affinity in units of concentration. The low end stands for tighter binding, the high end for weaker binding.

The values above are taken from patent publication US11904020B2, “Bicyclic peptide ligands specific for TREM2” (Bicycle Tx Limited, priority 2021, dated 2024).
